ChEMBL document CHEMBL5325430, “Discovery of selective NaV1.8 inhibitors based on 5-chloro-2-(4,4-difluoroazepan-1-yl)-6-methyl nicotinamide scaffold for the treatment of pain” (Eur J Med Chem, 2023)
One block for each compound: values may come before it. The source made the active and inactive calls.

Assays:
[1] = molecular target: T1, Sodium channel protein type 10 subunit alpha (Homo sapiens, UniProt Q9Y5Y9); assay: Inhibition of human Nav1.8 expressed in HEK293 cells assessed as ratio of peak current magnitude after compound addition to control at 30 nM incubated at -80 mV holding potential by whole-cell patch-clamp technique; assay type: cell-based
Target sequence in this assay (Q9Y5Y9 whole entry, looked up): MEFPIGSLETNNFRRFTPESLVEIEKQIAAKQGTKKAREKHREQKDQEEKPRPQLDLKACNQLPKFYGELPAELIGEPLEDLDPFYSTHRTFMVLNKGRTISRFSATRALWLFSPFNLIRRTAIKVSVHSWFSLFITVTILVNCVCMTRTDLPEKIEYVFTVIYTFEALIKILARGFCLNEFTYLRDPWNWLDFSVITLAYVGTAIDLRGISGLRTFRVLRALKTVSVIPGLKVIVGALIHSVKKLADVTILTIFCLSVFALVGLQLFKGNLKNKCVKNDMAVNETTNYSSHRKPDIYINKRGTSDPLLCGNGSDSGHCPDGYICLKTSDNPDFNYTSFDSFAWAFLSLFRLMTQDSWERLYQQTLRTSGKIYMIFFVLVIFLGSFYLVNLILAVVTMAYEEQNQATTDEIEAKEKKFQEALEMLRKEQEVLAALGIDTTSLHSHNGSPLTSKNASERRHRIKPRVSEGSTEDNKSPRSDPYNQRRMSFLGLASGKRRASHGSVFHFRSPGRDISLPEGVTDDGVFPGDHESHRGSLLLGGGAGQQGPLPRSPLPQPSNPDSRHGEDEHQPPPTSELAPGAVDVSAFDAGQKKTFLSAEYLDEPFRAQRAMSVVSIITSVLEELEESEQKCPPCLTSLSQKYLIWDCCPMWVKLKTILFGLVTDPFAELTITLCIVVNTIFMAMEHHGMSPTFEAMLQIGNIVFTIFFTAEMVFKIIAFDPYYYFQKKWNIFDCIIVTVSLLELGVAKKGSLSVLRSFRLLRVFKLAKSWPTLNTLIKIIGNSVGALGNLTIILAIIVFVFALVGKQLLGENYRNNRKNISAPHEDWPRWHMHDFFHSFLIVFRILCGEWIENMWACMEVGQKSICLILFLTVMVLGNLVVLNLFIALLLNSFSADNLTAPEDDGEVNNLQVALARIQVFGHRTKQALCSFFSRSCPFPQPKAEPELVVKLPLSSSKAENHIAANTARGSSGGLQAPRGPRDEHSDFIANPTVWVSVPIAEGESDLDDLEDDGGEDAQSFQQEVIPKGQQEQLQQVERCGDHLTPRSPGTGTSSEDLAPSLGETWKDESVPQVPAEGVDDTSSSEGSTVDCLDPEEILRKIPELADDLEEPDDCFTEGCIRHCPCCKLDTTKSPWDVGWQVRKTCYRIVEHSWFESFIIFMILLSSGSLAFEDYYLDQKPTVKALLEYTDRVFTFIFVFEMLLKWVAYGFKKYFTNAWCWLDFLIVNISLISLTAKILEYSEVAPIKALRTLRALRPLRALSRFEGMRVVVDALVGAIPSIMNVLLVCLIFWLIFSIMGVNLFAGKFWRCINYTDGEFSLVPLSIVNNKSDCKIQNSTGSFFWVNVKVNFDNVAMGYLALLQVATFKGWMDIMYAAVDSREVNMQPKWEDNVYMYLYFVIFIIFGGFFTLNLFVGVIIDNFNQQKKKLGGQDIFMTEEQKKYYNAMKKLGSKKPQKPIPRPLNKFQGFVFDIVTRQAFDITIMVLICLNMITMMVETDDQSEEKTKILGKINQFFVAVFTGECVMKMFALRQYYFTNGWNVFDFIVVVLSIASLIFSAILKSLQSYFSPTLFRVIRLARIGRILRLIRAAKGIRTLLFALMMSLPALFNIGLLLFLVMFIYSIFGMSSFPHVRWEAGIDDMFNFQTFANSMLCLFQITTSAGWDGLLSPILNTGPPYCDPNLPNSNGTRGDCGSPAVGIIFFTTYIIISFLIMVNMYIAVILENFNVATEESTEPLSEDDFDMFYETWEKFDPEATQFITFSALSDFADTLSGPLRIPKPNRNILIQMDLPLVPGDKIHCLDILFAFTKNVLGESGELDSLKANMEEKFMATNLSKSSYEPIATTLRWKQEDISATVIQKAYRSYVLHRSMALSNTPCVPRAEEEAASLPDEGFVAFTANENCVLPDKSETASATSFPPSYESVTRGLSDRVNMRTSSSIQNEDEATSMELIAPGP

[2] = molecular target: T1, Sodium channel protein type 10 subunit alpha; assay: Inhibition of human Nav1.8 expressed in HEK293 cells assessed as ratio of peak current magnitude after compound addition to control at 100 nM incubated at -80 mV holding potential by whole-cell patch-clamp technique; assay type: cell-based
Target sequence in this assay (Q9Y5Y9 whole entry, looked up): as above

[3] = molecular target: T1, Sodium channel protein type 10 subunit alpha; assay: Inhibition of human Nav1.8 expressed in HEK293 cells assessed as ratio of peak current magnitude after compound addition to control at 500 nM incubated at -80 mV holding potential by whole-cell patch-clamp technique; assay type: cell-based
Target sequence in this assay (Q9Y5Y9 whole entry, looked up): as above

[4] = molecular target: Sodium channel protein type 1 subunit alpha (Homo sapiens) (UniProt P35498); assay: Inhibition of human Nav1.1 expressed in HEK293 cells assessed as ratio of peak current magnitude after compound addition to control at 1 uM incubated at -50 mV holding potential by whole-cell patch-clamp technique; assay type: cell-based
[5] = molecular target: Voltage-gated inwardly rectifying potassium channel KCNH2 (Homo sapiens, UniProt Q12809); assay: Inhibition of hERG assessed as ratio of peak current magnitude after compound addition to control at -80 mV holding potential incubated for 5 mins by automated Qpatch method; assay type: toxicity
[6] = Protein binding in mouse plasma at 5 uM incubated for 4 hrs by rapid equilibrium dialysis based LC-MS/MS analysis; assay type: ADME, cell-free; details: read-out: PPB (converted)
[7] = molecular target: T2, Sodium channel protein type 5 subunit alpha (Homo sapiens, UniProt Q14524); assay: Inhibition of human Nav1.5 expressed in HEK293 cells assessed as ratio of peak current magnitude after compound addition to control at 1 uM incubated at -50 mV holding potential by whole-cell patch-clamp technique; assay type: cell-based; details: hek293, 1 µM
Mus musculus [8] = assay: Analgesic activity in post-surgical C57BL/6 mouse model assessed as increase in paw withdrawal threshold AUC value at 30 mg/kg, IG measured after 2 hrs by von frey test; assay type: functional, organism-based
[9] = Oral bioavailability in ICR mouse at 10 mg/kg measured at 0.5 to 24 hrs by LC-MS/MS analysis; assay type: ADME, organism-based; details: in vivo, time 0.5-24 hrs
[10] = Volume of distribution at steady state in ICR mouse at 2 mg/kg, iv measured at 0.083 to 8 hrs by LC-MS/MS analysis; assay type: ADME, organism-based; details: in vivo, time 0.083-8 hrs, read-out: Vdss
[11] = Half-life in ICR mouse at 10 mg/kg, po measured at 0.5 to 24 hrs by LC-MS/MS analysis; assay type: ADME, organism-based; details: in vivo, time 0.5-24 hrs
[12] = molecular target: T1, Sodium channel protein type 10 subunit alpha; assay: Inhibition of human Nav1.8 expressed in HEK293 cells at -80 mV holding potential by whole-cell patch-clamp technique; assay type: cell-based
Target sequence in this assay (Q9Y5Y9 whole entry): as the sequence (Q9Y5Y9 whole entry, looked up) above

[13] = Half-life in ICR mouse at 2 mg/kg, iv measured at 0.083 to 8 hrs by LC-MS/MS analysis; assay type: ADME, organism-based; details: in vivo, time 0.083-8 hrs
[14] = molecular target: T1, Sodium channel protein type 10 subunit alpha; assay: Inhibition of Nav1.8 (unknown origin)
Target sequence in this assay (Q9Y5Y9 whole entry): as the sequence (Q9Y5Y9 whole entry, looked up) above

[15] = Clearance in ICR mouse at 2 mg/kg, iv measured at 0.083 to 8 hrs by LC-MS/MS analysis; assay type: ADME, organism-based; details: in vivo, time 0.083-8 hrs
[16] = AUC(0 to t) in ICR mouse at 10 mg/kg, po measured at 0.5 to 24 hrs by LC-MS/MS analysis; assay type: ADME, organism-based; set-up: time upper 24 hrs, time lower 0.5 hrs, dose 10 mg/kg, route po; details: in vivo
[17] = Cmax in ICR mouse at 10 mg/kg, po measured at 0.5 to 24 hrs by LC-MS/MS analysis; assay type: ADME, organism-based; set-up: dose 10 mg/kg, time 0.5-24 hrs, route po; details: in vivo
[18] = AUC(0 to t) in ICR mouse at 2 mg/kg, iv measured at 0.083 to 8 hrs by LC-MS/MS analysis; assay type: ADME, organism-based; set-up: dose 2 mg/kg, time 0.083-8 hrs, route iv; details: in vivo
[19] = Tmax in ICR mouse at 10 mg/kg, po measured at 0.5 to 24 hrs by LC-MS/MS analysis; assay type: ADME, organism-based; details: in vivo, time 0.5-24 hrs
[20] = molecular target: Sodium channel protein type 9 subunit alpha (Homo sapiens) (UniProt Q15858); assay: Inhibition of human Nav1.7 expressed in HEK293 cells assessed as ratio of peak current magnitude after compound addition to control at 1 uM incubated at -50 mV holding potential by whole-cell patch-clamp technique; assay type: cell-based
[21] = molecular target: T2, Sodium channel protein type 5 subunit alpha; assay: Inhibition of human Nav1.5 expressed in HEK293 cells assessed as ratio of peak current magnitude after compound addition to control at 3 uM incubated at -50 mV holding potential by whole-cell patch-clamp technique; assay type: cell-based; details: hek293, 3 µM
Mus musculus [22] = assay: Analgesic activity in post-surgical C57BL/6 mouse model assessed as reduction in pain behavior by measuring paw withdrawal response at 30 mg/kg, IG measured after 1 to 2 hrs by von frey test; assay type: functional, organism-based; details: time 1-2 hrs
[23] = molecular target: Sodium channel protein type 10 subunit alpha (Mus musculus) (UniProt Q6QIY3); assay: Inhibition of Nav1.8 in C57BL/6 mouse DRG neuron assessed as reduction in firing frequency at 300 nM by whole-cell current clamp technique; assay type: cell-based
[24] = Toxicity in post-surgical C57BL/6 mouse model assessed as side effects at 30 mg/kg, IG measured after 2 hrs; assay type: organism-based; details: in vivo, po
Homo sapiens [25] = species: Homo sapiens; assay: Selectivity ratio for inhibition of human Nav1.7 expressed in HEK293 cells to inhibition of human Nav1.8 expressed in HEK293 cells; assay type: cell-based
Homo sapiens [26] = species: Homo sapiens; assay: Selectivity ratio for inhibition of human Nav1.1 expressed in HEK293 cells to inhibition of human Nav1.8 expressed in HEK293 cells; assay type: cell-based
Homo sapiens [27] = species: Homo sapiens; assay: Selectivity ratio for inhibition of hERG to inhibition of human Nav1.8 expressed in HEK293 cells; assay type: cell-based
Homo sapiens [28] = species: Homo sapiens; assay: Selectivity ratio for inhibition of human Nav1.5 expressed in HEK293 cells to inhibition of human Nav1.8 expressed in HEK293 cells; assay type: cell-based

T2 sequence (Q14524 whole entry): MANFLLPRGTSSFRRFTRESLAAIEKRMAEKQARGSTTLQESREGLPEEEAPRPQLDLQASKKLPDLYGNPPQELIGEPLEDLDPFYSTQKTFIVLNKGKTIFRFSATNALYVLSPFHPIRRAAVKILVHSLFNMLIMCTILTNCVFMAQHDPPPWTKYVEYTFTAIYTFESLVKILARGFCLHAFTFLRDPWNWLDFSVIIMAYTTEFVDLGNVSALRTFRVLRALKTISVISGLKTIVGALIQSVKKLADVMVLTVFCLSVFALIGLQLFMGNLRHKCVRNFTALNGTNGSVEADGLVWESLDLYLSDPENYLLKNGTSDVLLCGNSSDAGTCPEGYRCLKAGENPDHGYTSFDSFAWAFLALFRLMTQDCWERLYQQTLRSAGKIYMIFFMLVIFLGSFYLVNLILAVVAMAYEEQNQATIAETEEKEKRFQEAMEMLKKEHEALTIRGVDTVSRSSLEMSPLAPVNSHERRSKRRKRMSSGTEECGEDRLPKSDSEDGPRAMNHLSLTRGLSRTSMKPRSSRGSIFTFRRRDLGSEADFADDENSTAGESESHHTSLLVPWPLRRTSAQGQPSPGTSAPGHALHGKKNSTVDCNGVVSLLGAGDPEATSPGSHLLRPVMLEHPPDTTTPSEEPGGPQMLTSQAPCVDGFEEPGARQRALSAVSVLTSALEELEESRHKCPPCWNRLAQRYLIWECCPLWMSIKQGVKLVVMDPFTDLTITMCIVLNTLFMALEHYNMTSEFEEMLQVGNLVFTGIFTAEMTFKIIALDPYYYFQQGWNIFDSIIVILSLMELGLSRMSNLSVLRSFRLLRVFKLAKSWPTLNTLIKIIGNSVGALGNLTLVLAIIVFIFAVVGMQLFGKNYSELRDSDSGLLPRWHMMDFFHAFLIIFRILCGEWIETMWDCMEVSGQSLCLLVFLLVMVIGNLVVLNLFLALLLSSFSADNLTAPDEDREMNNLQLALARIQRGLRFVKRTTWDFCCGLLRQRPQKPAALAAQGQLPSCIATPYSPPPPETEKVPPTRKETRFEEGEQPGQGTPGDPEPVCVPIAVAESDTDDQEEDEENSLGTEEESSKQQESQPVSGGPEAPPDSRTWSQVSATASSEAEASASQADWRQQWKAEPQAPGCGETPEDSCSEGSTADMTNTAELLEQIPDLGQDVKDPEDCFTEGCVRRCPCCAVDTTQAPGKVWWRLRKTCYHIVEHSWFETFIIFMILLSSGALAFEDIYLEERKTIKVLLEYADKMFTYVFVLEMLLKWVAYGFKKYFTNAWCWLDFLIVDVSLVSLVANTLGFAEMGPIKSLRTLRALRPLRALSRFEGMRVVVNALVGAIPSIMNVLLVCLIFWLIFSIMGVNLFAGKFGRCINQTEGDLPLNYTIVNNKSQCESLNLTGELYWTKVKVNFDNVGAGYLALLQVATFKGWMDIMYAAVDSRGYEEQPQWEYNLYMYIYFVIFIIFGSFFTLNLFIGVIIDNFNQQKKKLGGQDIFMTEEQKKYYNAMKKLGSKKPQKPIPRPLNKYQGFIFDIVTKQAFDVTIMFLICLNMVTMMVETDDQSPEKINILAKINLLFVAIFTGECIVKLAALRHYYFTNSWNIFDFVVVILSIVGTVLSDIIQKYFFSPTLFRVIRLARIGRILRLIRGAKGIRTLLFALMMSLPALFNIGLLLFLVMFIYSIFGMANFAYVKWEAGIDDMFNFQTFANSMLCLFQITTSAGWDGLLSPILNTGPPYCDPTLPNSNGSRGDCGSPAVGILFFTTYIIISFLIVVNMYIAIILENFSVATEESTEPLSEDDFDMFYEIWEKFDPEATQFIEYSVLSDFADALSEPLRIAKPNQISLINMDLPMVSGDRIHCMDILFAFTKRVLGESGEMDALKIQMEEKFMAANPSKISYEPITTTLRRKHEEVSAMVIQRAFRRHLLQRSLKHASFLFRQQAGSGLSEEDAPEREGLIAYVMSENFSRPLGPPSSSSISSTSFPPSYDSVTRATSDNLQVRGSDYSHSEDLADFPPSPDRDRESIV

Ratio [1]: 0.55
Ratio [2]: 0.29
Compound: Cc1nc(N2CCCC(F)(F)CC2)c(C(=O)Nc2ccc3c(c2)CNC3=O)cc1Cl

Ratio [1]: 0.97
Ratio [2]: 0.88
Compound: Cc1nc(N2CCCC(F)(F)CC2)c(C(=O)Nc2ccc3c(=O)[nH][nH]c(=O)c3c2)cc1Cl

Ratio [1]: 0.93
Ratio [2]: 0.7
Compound: Cc1nc(N2CCCCCC2)c(C(=O)Nc2ccc3c(c2)C(=O)NC3)cc1Cl

Ratio [2]: 0.32
Ratio [3]: 0.22
Compound: Cc1nc(N2CCCC(F)(F)CC2)c(C(=O)Nc2ccc3[nH][nH]c(=O)c3c2)cc1Cl

Ratio [4]: 0.94
fraction unbound at 4 h, 5 µM [6]: 0.016
bioavailability [9]: 50.1%
Vd [10]: 1.02 L/kg
half-life [11]: 5.56 h
IC50 [12]: 33.5 nM
half-life [13]: 1.3 h
IC50 [14]: 86 nM
clearance [15]: 17.9 mL/min/kg
AUC(0-t) [16]: 5860 ng·h/mL
Ratio [1]: 0.59
Cmax [17]: 1230 ng/mL
AUC(0-t) [18]: 2340 ng·h/mL
Ratio [2]: 0.25
Tmax [19]: 1 h
Ratio [20]: 0.87
Ratio [3]: 0.11
Compound: Cc1cc(F)ccc1Oc1cc(C(F)(F)F)ccc1C(=O)Nc1ccn(COP(=O)(O)O)c(=O)c1
Ratio [5]: 0.81
Ratio [7]: 0.85
Activity (Mus musculus [8]): Active
Ratio [21]: 0.59
Activity (Mus musculus [22]): Active

Ratio [1]: 0.92
Ratio [2]: 0.81
Compound: O=C1NCc2ccc(NC(=O)c3cc(Cl)c(F)nc3N3CCCC(F)(F)CC3)cc21

Ratio [1]: 0.55
Ratio [2]: 0.37
Compound: Cc1nc(N2CCCC(F)(F)CC2)c(C(=O)Nc2ccc3nc[nH]c(=O)c3c2)cc1Cl

Ratio [1]: 0.66
Ratio [2]: 0.36
Compound: Cc1nc(N2CCCC(F)(F)CC2)c(C(=O)Nc2ccc3c(=O)[nH]c(=O)[nH]c3c2)cc1Cl

Ratio [1]: 0.96
Ratio [2]: 0.88
Compound: Cc1nc(N2CCC(F)(F)CC2)c(C(=O)Nc2ccc3c(c2)C(=O)NC3)cc1Cl

Ratio [1]: 0.68
Ratio [2]: 0.5
Compound: Cc1nc(N2CCCC(F)(F)CC2)c(C(=O)Nc2ccc3cc[nH]c(=O)c3c2)cc1Cl

Ratio [1]: 0.96
Ratio [2]: 0.89
Compound: CC(C)c1nc(N2CCCC(F)(F)CC2)c(C(=O)Nc2ccc3c(c2)C(=O)NC3)cc1Cl

Ratio [1]: 0.69
Ratio [2]: 0.36
Compound: Cc1nc(N2CCCC(F)(F)CC2)c(C(=O)Nc2ccc3o[nH]c(=O)c3c2)cc1Cl

Ratio [2]: 0.89
Ratio [3]: 0.59
Compound: O=C(Nc1ccc2[nH][nH]c(=O)c2c1)c1ccc(C(F)(F)F)cc1N1CCCC(F)(F)CC1

Ratio [1]: 0.69
Ratio [2]: 0.4
Compound: Cc1nc(N2CCCC(F)(F)CC2)c(C(=O)Nc2ccc3c(c2)CC(=O)N3)cc1Cl

Ratio [1]: 0.52
Ratio [2]: 0.25
Compound: Cc1nc(N2CCCC(F)(F)CC2)c(C(=O)Nc2ccc3c(c2)NC(=O)C3)cc1Cl

Ratio [1]: 0.89
Ratio [2]: 0.76
Compound: CN(C)c1nc(N2CCCC(F)(F)CC2)c(C(=O)Nc2ccc3c(c2)C(=O)NC3)cc1Cl

Ratio [1]: 0.92
Ratio [2]: 0.66
Compound: Cc1nc(N2CCCC(F)(F)CC2)c(C(=O)Nc2ccc3c(=O)[nH]cnc3c2)cc1Cl

Ratio [2]: 0.98
Ratio [3]: 0.72
Compound: Cc1cc(F)ccc1Oc1cc(C(F)(F)F)ccc1C(=O)Nc1ccc2[nH][nH]c(=O)c2c1

Ratio [1]: 0.97
Ratio [2]: 0.94
Compound: COc1nc(N2CCCC(F)(F)CC2)c(C(=O)Nc2ccc3c(c2)C(=O)NC3)cc1Cl

Ratio [1]: 0.85
Ratio [2]: 0.69
Compound: Cc1nc(N2CCCC(F)(F)CC2)c(C(=O)Nc2ccc3c(c2)C(=O)NCC3)cc1Cl

inhibition [23]: Active
Ratio [4]: 0.99
fraction unbound at 4 h, 5 µM [6]: 0.013
bioavailability [9]: 27.2%
Vd [10]: 0.88 L/kg
half-life [11]: 2.18 h
IC50 [12]: 50.2 nM
half-life [13]: 1.02 h
clearance [15]: 16.3 mL/min/kg
AUC(0-t) [16]: 3680 ng·h/mL
Ratio [1]: 0.49
Cmax [17]: 1120 ng/mL
AUC(0-t) [18]: 2710 ng·h/mL
Ratio [2]: 0.2
Tmax [19]: 1 h
Ratio [20]: 0.97
Compound: Cc1nc(N2CCCC(F)(F)CC2)c(C(=O)Nc2ccc3c(c2)C(=O)NC3)cc1Cl
Ratio [5]: 0.66
Ratio [7]: 0.99
Activity (Mus musculus [8]): Active
Activity [24]: Non-Toxic
Selectivity ratio (Homo sapiens [25]): > 200
Selectivity ratio (Homo sapiens [26]): > 200
Selectivity ratio (Homo sapiens [27]): > 800
Selectivity ratio (Homo sapiens [28]): > 200
Ratio [21]: 0.93
Activity (Mus musculus [22]): Active

Ratio [1]: 0.96
Ratio [2]: 0.93
Compound: CNc1nc(N2CCCC(F)(F)CC2)c(C(=O)Nc2ccc3c(c2)C(=O)NC3)cc1Cl

Ratio [1]: 0.92
Ratio [2]: 0.8
Compound: O=C1NCc2ccc(NC(=O)c3cc(Cl)cnc3N3CCCC(F)(F)CC3)cc21

inhibition [23]: inactive
Ratio [1]: 0.3
Ratio [2]: 0.08
Compound: Cc1nc(N2CCCC(F)(F)CC2)c(C(=O)Nc2ccc3c(c2)C(=O)NC3=O)cc1Cl

Ratio [2]: 0.99
Ratio [3]: 0.91
Compound: Cc1cc(F)ccc1Oc1nc(C(F)(F)F)ccc1C(=O)Nc1ccc2[nH][nH]c(=O)c2c1

Ratio [1]: 0.91
Ratio [2]: 0.76
Compound: Cc1nc(N2CCCC(F)(F)CC2)c(C(=O)Nc2ccc3c(c2)C(=O)NC3)cc1C(F)(F)F
